The source of these data is ChEMBL document CHEMBL4831498, “Discovery of a potent MLL1 and WDR5 protein-protein interaction inhibitor with in vivo antitumor activity” (Eur J Med Chem, 2021).

Broadly, the solubility is the dissolved amount per volume that the medium holds.

Structures are written as SMILES. In brackets after ≈: the same amount, converted by molar mass.

This data set can be described thus: Solubility of the compound at pH 7.4 by potentiometric titration method. The data set is classed as physicochemical. The note with it: buffer.

`Cc1c(F)c(N)cc(C(=O)Nc2cc(-n3cc(C(=O)N4CCOCC4)nn3)ccc2N2CCN(C)CC2)c1Cl` had a solubility of 361 µM (≈ 201 µg/mL).

In turn, `Cc1c(F)c(N)cc(C(=O)Nc2cc(-n3cc(C(=O)O)nn3)ccc2N2CCN(C)CC2)c1Cl` had a solubility of 349 µM (≈ 170 µg/mL). The solubility values of the last two molecules are within 1.5-fold of each other.

In turn, `Cc1c(F)c(N)cc(C(=O)Nc2cc(-c3ccc(C(=O)N4CCOCC4)cc3)ccc2N2CCN(C)CC2)c1Cl` registered a solubility of 48.2 µM (≈ 27.3 µg/mL). Against the preceding molecule, the solubility is about 7.2-fold lower.

The molecule `COC(=O)c1ccc(-c2ccc(N3CCN(C)CC3)c(NC(=O)c3cc(N)c(F)c(C)c3Cl)c2)cc1` gave a solubility of 3.7 µM (≈ 1.89 µg/mL). Against the preceding molecule, the solubility is about 13-fold lower.

In turn, `Cc1c(F)c(N)cc(C(=O)Nc2cc(-c3ccc(NC(=O)C4CCN(C)CC4)cc3)ccc2N2CCN(C)CC2)c1Cl` returned a solubility of 3.9 µM (≈ 2.31 µg/mL).

The molecule `Cc1c(F)c(N)cc(C(=O)Nc2cc(-c3ccc(C(=O)O)cc3)ccc2N2CCN(C)CC2)c1Cl` returned a solubility of 40.5 µM (≈ 20.1 µg/mL).

In the case of `Cc1c(F)c(N)cc(C(=O)Nc2cc(-n3cc(C(=O)NCCCN4CCOCC4)nn3)ccc2N2CCN(C)CC2)c1Cl`, the solubility is 246 µM (≈ 151 µg/mL).

`Cc1c(F)c(N)cc(C(=O)Nc2cc(-n3cc(C(=O)NC4CCN(C)CC4)nn3)ccc2N2CCN(C)CC2)c1Cl`: the concentration in solution (solubility) was 343 µM (≈ 201 µg/mL).

For the molecule `Cc1c(F)c(N)cc(C(=O)Nc2cc(-c3ccc(NC(=O)C4CCOCC4)cc3)ccc2N2CCN(C)CC2)c1Cl`, the solubility is 126 µM (≈ 73.3 µg/mL).

With `COC(=O)c1cn(-c2ccc(N3CCN(C)CC3)c(NC(=O)c3cc(N)c(F)c(C)c3Cl)c2)nn1`, the solubility amounted to 41.5 µM (≈ 20.8 µg/mL).

Consider `Cc1c(F)c(N)cc(C(=O)Nc2cc(-c3ccc(NC(=O)CCCN)cc3)ccc2N2CCN(C)CC2)c1Cl`, for which the concentration in solution (solubility) came to 199 µM (≈ 110 µg/mL).

For `Cc1c(F)c(N)cc(C(=O)Nc2cc(-n3cc(C(=O)NC4CCOCC4)nn3)ccc2N2CCN(C)CC2)c1Cl`, the concentration in solution (solubility) was 95.6 µM (≈ 54.6 µg/mL).
